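Interpolation was linear, between the two tested concentrations surrounding the appropriate level; five concentrations were tested over 48 hours in 96-well plates. Abbreviation: GI50, concentration required for 50% inhibition of growth. TGI denotes the concentration required for complete inhibition of growth.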

Test systems include SNB-75 CNS; UACC-62 melanoma; T-47D breast; SF-295 CNS; TK-10 renal; CAKI-1 renal; RPMI-8226 leukemia; SN12C renal; A549 NSCLC; SK-MEL-5 melanoma.
Test in all cases: NCI anticancer screen, dose series, 48 h

As for `Cc1[c-]onc1C.Cc1[c-]onc1C.[Ag].[Ag].[NH-]S(=O)(=O)c1ccc(N=Nc2cc(N=Nc3ccc(S([NH-])(=O)=O)cc3)c3c(NC(=O)C(Cl)Cl)cccc3c2OC(=O)C(Cl)Cl)cc1`, the GI50 was 6.85 µM in the test on SNB-75 CNS; 7.36 µM in the test with UACC-62 melanoma; 2.1 µM in the test on T-47D breast; 33.9 µM with SF-295 CNS; 10 µM in the test with TK-10 renal; 7.12 µM in the test on CAKI-1 renal. In addition, the GI50 is 9.27 µM in the test with RPMI-8226 leukemia, 14.9 µM in the test on SN12C renal, 11 µM with A549 NSCLC and 1.71 µM with SK-MEL-5 melanoma. Besides, the TGI with SNB-75 CNS is 18.9 µM; with UACC-62 melanoma, 14.5 µM; with T-47D breast, 17.4 µM; in the test on SF-295 CNS it was above 50 µM; in the test on TK-10 renal, 18.2 µM; in the test with CAKI-1 renal it was 14.2 µM. Also, the TGI in the test with RPMI-8226 leukemia is 27.2 µM; in the test with SN12C renal it was above 50 µM; in the test on A549 NSCLC, above 50 µM; with SK-MEL-5 melanoma it was 6.07 µM.

On to `N#Cc1cnc2cc(OC[C@H](O)CO)c(NC(=O)CC3CSSC3)cc2c1Nc1ccc(OCc2cccc(F)c2)c(Cl)c1`, for which the GI50 is 0.879 µM with SNB-75 CNS; 0.807 µM with UACC-62 melanoma; 0.575 µM in the test with T-47D breast; 0.83 µM in the test with SF-295 CNS; 0.873 µM in the test on TK-10 renal; 10.1 µM in the test on CAKI-1 renal. Besides, the GI50 with RPMI-8226 leukemia is 1.09 µM; with SN12C renal, 0.35 µM; with A549 NSCLC, 0.924 µM; in the test with SK-MEL-5 melanoma, 0.841 µM. Moreover, the TGI was determined as 1.74 µM with SNB-75 CNS; 1.68 µM with UACC-62 melanoma; 1.47 µM in the test with T-47D breast; 1.6 µM in the test with SF-295 CNS; 2.13 µM in the test with TK-10 renal; 27.6 µM in the test with CAKI-1 renal. In addition, the TGI worked out at 2.49 µM with RPMI-8226 leukemia, 1.1 µM with SN12C renal, 1.98 µM in the test with A549 NSCLC and 1.59 µM in the test with SK-MEL-5 melanoma.

For `CN(CCCN)CCCNc1nc2ccccc2c2[nH]c3ccccc3c12`, the GI50 is 0.272 µM in the test on SNB-75 CNS; 0.285 µM in the test on UACC-62 melanoma; 0.283 µM in the test with T-47D breast; 0.224 µM with SF-295 CNS; 0.54 µM in the test on TK-10 renal; 0.259 µM with CAKI-1 renal. In addition, the GI50 in the test on RPMI-8226 leukemia was 0.207 µM; with SN12C renal it was 0.119 µM; in the test with A549 NSCLC, 0.16 µM; in the test with SK-MEL-5 melanoma, 0.747 µM. Besides, the TGI in the test with SNB-75 CNS is 0.943 µM; in the test on UACC-62 melanoma it was 0.692 µM; in the test with T-47D breast, 0.772 µM; in the test on SF-295 CNS it was 0.738 µM; in the test on TK-10 renal, 3.16 µM; in the test on CAKI-1 renal, 0.754 µM. The TGI in the test with RPMI-8226 leukemia amounted to 0.947 µM; in the test with SN12C renal it was 0.606 µM; with A549 NSCLC it was 2.22 µM; in the test on SK-MEL-5 melanoma, 1.98 µM.

`ClCCn1c(CCl)nc2ccc(Cl)cc21`: the GI50 was 1.14 µM with SNB-75 CNS; 0.43 µM in the test with UACC-62 melanoma; 1.86 µM in the test with T-47D breast; 2.21 µM in the test with SF-295 CNS; 1.46 µM with TK-10 renal; 1.6 µM in the test on CAKI-1 renal. Besides, the GI50 in the test on RPMI-8226 leukemia is 1.42 µM; in the test on SN12C renal, 0.257 µM; in the test on A549 NSCLC, 1.76 µM; in the test with SK-MEL-5 melanoma it was 0.176 µM. In addition, the TGI with SNB-75 CNS was 2.41 µM; in the test with UACC-62 melanoma it was 1.59 µM; with T-47D breast, 4.19 µM; with SF-295 CNS, 5.5 µM; in the test with TK-10 renal it was 2.95 µM; in the test with CAKI-1 renal, 3.2 µM. Further, the TGI in the test with RPMI-8226 leukemia is 3.87 µM; with SN12C renal it was 0.708 µM; with A549 NSCLC, 4.24 µM; in the test with SK-MEL-5 melanoma it was 0.329 µM.

On to `O=C(c1ccc(F)cc1)c1cccc(C(=O)c2ccc(F)cc2)n1`, for which the TGI with SNB-75 CNS was 22.7 µM; in the test with UACC-62 melanoma, above 100 µM; in the test with T-47D breast it was above 100 µM; with SF-295 CNS, 39.3 µM; in the test with TK-10 renal, 69.3 µM; with CAKI-1 renal, above 100 µM. The TGI in the test on RPMI-8226 leukemia was above 100 µM; in the test on SN12C renal, above 56.2 µM; in the test on A549 NSCLC, above 100 µM; with SK-MEL-5 melanoma, above 79.2 µM.

Consider `CNC(=O)n1ccc2cc(Oc3ccnc(NC(=O)c4ccc(C5CCN(CCO)CC5)cc4)c3)c(OCCOC)cc21`, for which the GI50 in the test on SNB-75 CNS was 1.84 µM; in the test on UACC-62 melanoma, 5.23 µM; with T-47D breast, 11.8 µM; in the test with SF-295 CNS it was 8.54 µM; in the test with TK-10 renal it was 15.3 µM; with CAKI-1 renal, 3.08 µM. Also, the GI50 in the test with RPMI-8226 leukemia was 2 µM; in the test with SN12C renal, 13.5 µM; in the test with A549 NSCLC, 5.27 µM; with SK-MEL-5 melanoma, 1.96 µM. Also, the TGI turned out to be 7.28 µM in the test on SNB-75 CNS; 17.5 µM in the test with UACC-62 melanoma; 36 µM with T-47D breast; 21 µM in the test on SF-295 CNS; 29.6 µM with TK-10 renal; 11.3 µM with CAKI-1 renal. In addition, the TGI is 6.58 µM with RPMI-8226 leukemia, 27.9 µM with SN12C renal, 21.4 µM in the test with A549 NSCLC and 3.86 µM in the test on SK-MEL-5 melanoma.

Regarding `CC/C=C\C=C/C(=O)N/C=C/CC1Cc2cccc(O)c2C(=O)O1` (stereo not given), the GI50 in the test with SNB-75 CNS was 16 µM; with UACC-62 melanoma it was 22.6 µM; with T-47D breast, 36.1 µM; in the test with SF-295 CNS, 33.1 µM; in the test on TK-10 renal, 62 µM; with CAKI-1 renal, 17.3 µM. Moreover, the GI50 was 22.2 µM in the test on RPMI-8226 leukemia, 17.8 µM in the test with SN12C renal, 34.9 µM in the test on A549 NSCLC and 5.63 µM with SK-MEL-5 melanoma. Besides, the TGI with SNB-75 CNS is above 100 µM; with UACC-62 melanoma, above 100 µM; in the test with T-47D breast, above 100 µM; with SF-295 CNS, above 100 µM; in the test with TK-10 renal it was above 100 µM; in the test on CAKI-1 renal, 36.3 µM. The TGI is 56.4 µM in the test with RPMI-8226 leukemia, 38.1 µM with SN12C renal, above 100 µM with A549 NSCLC and 27.3 µM in the test with SK-MEL-5 melanoma.

`O=CNc1c(Cl)cc2c(c1Cl)Cc1cc([N+](=O)[O-])ccc1-2`: the GI50 in the test on SNB-75 CNS is 2.84 µM; in the test on UACC-62 melanoma, 3.98 µM; in the test on T-47D breast, 5.49 µM; in the test on SF-295 CNS, 3.05 µM; with TK-10 renal it was 5.63 µM; in the test on CAKI-1 renal, 8.34 µM. The GI50 in the test on RPMI-8226 leukemia was 2.59 µM; in the test with SN12C renal it was 14.4 µM; in the test with A549 NSCLC, 4.55 µM; with SK-MEL-5 melanoma it was 1.11 µM. Besides, the TGI in the test on SNB-75 CNS was 21.5 µM; with UACC-62 melanoma, above 100 µM; in the test with T-47D breast, above 100 µM; in the test on SF-295 CNS, 14.3 µM; in the test on TK-10 renal, above 59.5 µM; with CAKI-1 renal, above 91.2 µM. Besides, the TGI in the test on RPMI-8226 leukemia, in the test on SN12C renal, in the test with A549 NSCLC and in the test with SK-MEL-5 melanoma was above 100 µM each time.
